This is an account of results in ChEMBL document CHEMBL1201862, “PubChem BioAssay data set” (2004).

Where “and” joins values, the source holds several entries; their conditions need not be identical. Identical values can stand only once.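 48-hour exposure; five concentrations; linearly interpolated endpoints. At the GI50, growth is halved.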 Calls of active or inactive are those of the source. No stated cut-off is given here; in the data, active = GI50 up to about 1.1 µM and inactive = higher.

Assay in all cases: NCI-60 cell line screen, 48 h
Experiment [1] concerns 786-0.
Experiment [2] relates to BT-549.
Experiment [3] deals with CAKI-1.
Experiment [4] relates to CCRF-CEM.
Experiment [5] deals with DMS-114.
Experiment [6] relates to HCT-116.
Experiment [7] concerns HCT-15.
Experiment [8] deals with Hs-578T.
Experiment [9] concerns M14.
Experiment [10] concerns NCI-H460.
In experiment [11] the test system is NCI-H522.
In experiment [12] the test system is OVCAR-3.
Experiment [13] concerns RXF 393.
Experiment [14] relates to SF-539.
The test system of experiment [15] is SK-OV-3.
The subject of experiment [16] is SNB-75.
In experiment [17] the test system is TK-10.
The test system of experiment [18] is U-251.
The subject of experiment [19] is UACC-62.
Experiment [20] relates to MDA-MB-435.

As for `Nc1nc(N)c(CCCCc2ccc([N+](=O)[O-])cc2)c(N)n1`, the GI50 in [1] was 8.67 µM (inactive); in [2], > 100 µM (inactive); in [3], > 96.6 µM (inactive); in experiment [4], > 20.3 µM (inactive); in experiment [5] it was 20.8 µM (inactive); in [6], 3.93 µM (inactive). Moreover, the GI50 was 6.65 µM in experiment [7]; > 100 µM (inactive) in [8]; 31 µM (inactive) in [9]; 5.68 µM (inactive) in experiment [10]; > 83.6 µM (inactive) in experiment [11]; > 100 µM (inactive) in experiment [12]. For the same compound, the GI50 was 24.9 µM (inactive) in experiment [13]; > 85.3 µM (inactive) in experiment [14]; > 100 µM (inactive) in experiment [15]; > 100 µM (inactive) in experiment [16]; > 100 µM (inactive) in [17]; 10.6 µM (inactive) in [18]. For the same compound, the GI50 in experiment [19] was 8.67 µM (inactive).
`O=C1/C(=C\c2ccccc2)C2/C(=C\c3ccccc3)C(=O)/C(=C\c3ccccc3)C2/C1=C\c1ccccc1` (stereo unspecified): the GI50 in experiment [1] was 1.22 µM (inactive); in experiment [3], 2.67 µM (inactive); in experiment [4] it was 0.34 µM (active); in experiment [5], 1.73 µM (inactive); in [7] it was 1.32 µM; in experiment [9], 1.43 µM (inactive). In addition, the GI50 in [10] is 1.9 µM (inactive); in experiment [11], 0.592 µM (active); in experiment [12], 1.73 µM (inactive); in experiment [13], 1.53 µM (inactive); in experiment [14], 2.35 µM (inactive); in [15], 19.7 µM (inactive). Also, the GI50 in experiment [16] was 17.3 µM (inactive); in experiment [17], 3.87 µM (inactive); in experiment [18], 1.17 µM (inactive); in [19], 1.9 µM (inactive).
On to `O=C1[C@@H]2C(c3ccccc3F)=NO[C@@H]2C(=O)N1c1ccc(Cc2ccc(N3C(=O)[C@H]4C(c5ccccc5F)=NO[C@H]4C3=O)cc2)cc1`, for which the GI50 is > 100 µM (inactive) in experiment [1]; > 100 µM (inactive) in [3]; 16 µM (inactive) in experiment [4]; > 100 µM (inactive) in experiment [5]; > 100 µM (inactive) in [6]; above 100 µM in experiment [7]. The GI50 is > 100 µM (inactive) in experiment [9]; > 100 µM (inactive) in experiment [10]; > 100 µM (inactive) in [11]; > 100 µM (inactive) in experiment [12]; > 43.7 µM (inactive) in experiment [13]; > 100 µM (inactive) in experiment [14]. In addition, the GI50 is > 100 µM (inactive) in experiment [15]; > 100 µM (inactive) in [16]; > 31.6 µM (inactive) in [17]; > 100 µM (inactive) in [18]; > 100 µM (inactive) in experiment [19].
For `c1ccc2c(CNCCCCCCCCNCc3cccc4ccccc34)cccc2c1`, the GI50 is 1.73 µM (inactive) in experiment [1]; 1.98 µM (inactive) in [3]; 1.85 µM (inactive) in experiment [4]; 1.91 µM (inactive) in experiment [5]; 1.67 µM (inactive) in experiment [6]; 1.73 µM in experiment [7]. Also, the GI50 in [9] was 1.75 µM (inactive); in experiment [10] it was 1.48 µM (inactive); in [11] it was 1.79 µM (inactive); in experiment [12], 10.6 µM (inactive); in experiment [13], 1.74 µM (inactive); in experiment [14], 1.63 µM (inactive). The GI50 in [15] was 17.1 µM (inactive); in experiment [16], 1.9 µM (inactive); in [17] it was 1.66 µM (inactive); in experiment [18], 1.72 µM (inactive); in [19] it was 1.8 µM (inactive).
Consider `O=C(c1ccccc1)C1OC12C(=O)Nc1ccccc12` (stereo unspecified), for which the GI50 is 45.7 µM (inactive) in [1]; 20.8 µM (inactive) in [3]; 5.68 µM (inactive) in experiment [4]; 27 µM (inactive) in [5]; 36.2 µM (inactive) in experiment [6]; above 10 µM in experiment [7]. Also, the GI50 in experiment [9] was 21.8 µM (inactive); in experiment [10] it was 41.7 µM (inactive); in [11], 13.3 µM (inactive); in [12] it was 34.8 µM (inactive); in experiment [13], 20.9 µM (inactive); in experiment [14] it was 23.7 µM (inactive). The GI50 in experiment [15] is 35.6 µM (inactive); in experiment [16], 15.2 µM (inactive); in experiment [17], 40.3 µM (inactive); in experiment [19], 40.7 µM (inactive).
For the compound `CCOC(=O)CCn1ncc(Cl)c(Cl)c1=O`, the GI50 in [1] was 14.3 µM (inactive); in [3], 6.18 µM (inactive); in experiment [4], 2.9 µM (inactive); in [5], 2.1 µM (inactive); in experiment [6], 11.9 µM (inactive); in experiment [7], 2.15 µM. Further, the GI50 was 4.21 µM (inactive) in [9]; 11.9 µM (inactive) in [10]; 0.291 µM (active) in experiment [11]; 3.57 µM (inactive) in [12]; 11.4 µM (inactive) in experiment [13]; 13.9 µM (inactive) in experiment [14]. Also, the GI50 was 26.7 µM (inactive) in experiment [15]; 14.8 µM (inactive) in [16]; 17.9 µM (inactive) in experiment [17]; 5.89 µM (inactive) in experiment [18]; 6.3 µM (inactive) in experiment [19].
For the compound `O=C(O)c1[nH]c(C(=O)O)c(CC(F)(F)C(F)(F)C(F)(F)F)c1CC(F)(F)C(F)(F)C(F)(F)F`, the GI50 is > 100 µM (inactive) in [1]; > 100 µM (inactive) in [3]; > 100 µM (inactive) in experiment [4]; > 100 µM (inactive) in experiment [5]; > 100 µM (inactive) in experiment [6]; above 100 µM in [7]. Moreover, the GI50 in [9], in [10], in experiment [11], in experiment [12], in [13] and in experiment [14] was > 100 µM (inactive) throughout. Further, the GI50 in experiment [15], in experiment [16], in experiment [17], in experiment [18] and in experiment [19] was > 100 µM (inactive) in each case.
Take `CCCCOC1CC2(c3ccc(OC)cc3)C(=O)c3ccccc3N2O1` (stereo unspecified): the GI50 is 88.1 µM (inactive) in experiment [1]; 41.6 µM (inactive) in experiment [3]; 31.5 µM (inactive) in experiment [4]; 30 µM (inactive) in experiment [5]; 37.5 µM (inactive) in [6]; above 10 µM in experiment [7]. Moreover, the GI50 is 46.1 µM (inactive) in experiment [9]; > 10 µM (inactive) in [10]; 21.3 µM (inactive) in experiment [11]; 56.1 µM (inactive) in experiment [12]; 16.6 µM (inactive) in [13]; 90.6 µM (inactive) in experiment [14]. Also, the GI50 was > 100 µM (inactive) in [15]; > 100 µM (inactive) in experiment [16]; > 100 µM (inactive) in [17]; > 10 µM (inactive) in experiment [18]; > 10 µM (inactive) in experiment [19].
For the compound `COc1ccc(OC)c(/C=C/[N+](=O)[O-])c1`, the GI50 in experiment [1] is 1.79 µM (inactive) and 1.57 µM (inactive); in experiment [2], 3.67 µM (inactive); in experiment [3], 2.85 µM (inactive) and 2.45 µM (inactive); in experiment [4] it was 1.01 µM (active) and 1.58 µM (inactive); in experiment [5] it was 4.74 µM (inactive); in experiment [6] it was 1.85 µM (inactive) and 3.13 µM (inactive). Further, the GI50 in experiment [7] is 3.37 µM and 2.75 µM; in experiment [8], 4 µM (inactive); in experiment [9], 1.98 µM (inactive) and 3.36 µM (inactive); in experiment [20], 2.37 µM (inactive); in [10] it was 3.24 µM (inactive) and 5.48 µM (inactive); in [11], 1.63 µM (inactive) and 1.16 µM (inactive). Besides, the GI50 is 2.14 µM (inactive) and 1.75 µM (inactive) in experiment [12]; 1.12 µM (inactive) and 2.05 µM (inactive) in experiment [13]; 3.6 µM (inactive) and 2.89 µM (inactive) in [14]; 5.53 µM (inactive) and 4.7 µM (inactive) in experiment [15]; 6.64 µM (inactive) and 4.62 µM (inactive) in experiment [16]; 2.56 µM (inactive) and 3.76 µM (inactive) in [18].
Turning to `CNC(=O)NCCCC(NC(C)=O)C(=O)NCc1ccccc1` (stereo unspecified), the GI50 in experiment [1] is > 100 µM (inactive); in experiment [3] it was > 100 µM (inactive); in experiment [4], > 100 µM (inactive); in experiment [5], > 100 µM (inactive); in [6], > 100 µM (inactive); in experiment [7] it was above 100 µM. The GI50 in [9], in [10], in experiment [11], in experiment [12], in [13] and in experiment [14] was > 100 µM (inactive) in each case. Also, the GI50 was > 100 µM (inactive) in [15]; 42.2 µM (inactive) in experiment [16]; > 100 µM (inactive) in experiment [17]; > 100 µM (inactive) in [18]; > 100 µM (inactive) in [19].
For `CC(CN1CC(=O)NC(=O)C1)N1CC(=O)NC(=O)C1` (stereo unspecified) [RAZOXANE], the GI50 in experiment [1] was 98.9 µM (inactive); in experiment [2] it was 385 µM (inactive); in experiment [3], 109 µM (inactive); in experiment [4], 35.5 µM (inactive); in experiment [5], 67.9 µM (inactive); in experiment [6], 104 µM (inactive). The GI50 is 100 µM in [7]; 72.3 µM (inactive) in [8]; 217 µM (inactive) in experiment [9]; 485 µM (inactive) in experiment [20]; 11.1 µM (inactive) in experiment [10]; 90.8 µM (inactive) in experiment [11]. Moreover, the GI50 in [12] was 356 µM (inactive); in [13] it was 473 µM (inactive); in [14], 332 µM (inactive); in [15] it was 299 µM (inactive); in experiment [16] it was 306 µM (inactive); in [17] it was 168 µM (inactive). The GI50 in [18] was 201 µM (inactive); in experiment [19] it was 340 µM (inactive).
